Assay results from patent US12630528B2, “Amino aryl derivative useful as diacylglycerol acyltransferase 2 inhibitor and use thereof” (LG CHEM, LTD., priority 2019, dated 2026).
pIC50: −log10 of the molar value.

Target: T1, human DGAT2 (Homo sapiens, UniProt Q96PD7)
T1 construct: FLAG (DYKDDDDK); made in house; host or cells: Sf-21 insect cells (BacPAK baculovirus system); membrane fraction used
T1 sequence (Q96PD7 1-388): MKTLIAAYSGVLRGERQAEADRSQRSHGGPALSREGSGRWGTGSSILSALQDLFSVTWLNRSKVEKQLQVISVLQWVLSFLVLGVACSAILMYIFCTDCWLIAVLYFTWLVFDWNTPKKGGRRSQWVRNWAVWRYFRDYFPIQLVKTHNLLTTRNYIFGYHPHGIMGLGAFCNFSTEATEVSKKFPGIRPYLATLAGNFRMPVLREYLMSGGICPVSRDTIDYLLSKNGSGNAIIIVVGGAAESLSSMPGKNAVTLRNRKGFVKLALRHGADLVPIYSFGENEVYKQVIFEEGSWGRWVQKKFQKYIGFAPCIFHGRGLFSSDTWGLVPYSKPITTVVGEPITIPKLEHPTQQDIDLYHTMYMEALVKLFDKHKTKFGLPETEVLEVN
Assay: DGAT2 enzyme activity inhibition, Phospholipid FlashPlate SPA
Type: biochemical
Conditions: recombinant human DGAT2 membrane protein from Sf-21 cells; inhibition of [14C]-TG production; 37° C.
Summary of the method: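 Sf-21 membranes expressing recombinant human DGAT2 (2 μg) preincubated with compound (3 nM–10 μM, 1% DMSO) and 50 μM 1,2 sn-oleoyl glycerol, 20 min at 37 °C, then 1 μM [14C]oleoyl-CoA for 15 min. [14C]-TG counted by SPA; inhibition as % of untreated.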

CCOc1cccnc1O[C@@H]1CCCN(c2cncc(Nc3cccc(-c4cc(CC(C)(C)C(=O)O)ccc4F)n3)n2)C1 [Example 79, (R)-3-(3-(6-((6-(3-((3-ethoxypyridin-2-yl)oxy)piperidin-1-yl)pyrazin-2-yl)amino)pyridin-2-yl)-4-fluorophenyl)-2,2-dimethylpropanoic Acid] was tested. Which pIC50 did it give?
The pIC50 was 6.57.

How did the pIC50 turn out when CCOc1ccccc1O[C@@H]1CCCN(c2cncc(Nc3cccc(-c4cccc(OC(C)(C)C(=O)O)c4)n3)n2)C1 [Example 80, (R)-2-(3-(6-((6-(3-(2-ethoxyphenoxy)piperidin-1-yl)pyrazin-2-yl)amino)pyridin-2-yl)phenoxy)-2-methylpropanoic Acid] was run?
The pIC50 was 6.51.

With CCOc1cccnc1O[C@@H]1CCCN(c2cncc(Nc3cccc(-c4cccc(OC(C)(C)C(=O)O)c4)n3)n2)C1 [Example 81, (R)-2-(3-(6-((6-(3-((3-ethoxypyridin-2-yl)oxy)piperidin-1-yl)pyrazin-2-yl)amino)pyridin-2-yl)phenoxy)-2-methylpropanoic Acid] as the compound, how does the pIC50 read?
Its pIC50 is 6.70.

With CCOc1ccccc1O[C@@H]1CCCN(c2cncc(Nc3cccc(-c4ccc(OC(C)(C)C(=O)O)cc4)n3)n2)C1 [Example 82, (R)-2-(4-(6-((6-(3-(2-ethoxyphenoxy)piperidin-1-yl)pyrazin-2-yl)amino)pyridin-2-yl)phenoxy)-2-methylpropanoic Acid] as the compound, how does the pIC50 read?
Its pIC50 is 6.92.

With CCOc1cccnc1O[C@@H]1CCCN(c2cncc(Nc3cccc(-c4ccc(OC(C)(C)C(=O)O)cc4)n3)n2)C1 [Example 83, (R)-2-(4-(6-((6-(3-((3-ethoxypyridin-2-yl)oxy)piperidin-1-yl)pyrazin-2-yl)amino)pyridin-2-yl)phenoxy)-2-methylpropanoic Acid] as the compound, how does the pIC50 read?
Its pIC50 is 6.30.

With CCOc1ccccc1O[C@@H]1CCCN(c2cncc(Nc3cccc(-c4cc(OC(C)(C)C(=O)O)ccc4F)n3)n2)C1 [Example 84, (R)-2-(3-(6-((6-(3-(2-ethoxyphenoxy)piperidin-1-yl)pyrazin-2-yl)amino)pyridin-2-yl)-4-fluorophenoxy)-2-methylpropanoic Acid] as the compound, how does the pIC50 read?
The pIC50 was 6.40.

With CCOc1cccnc1O[C@@H]1CCCN(c2cncc(Nc3cccc(-c4cc(OC(C)(C)C(=O)O)ccc4F)n3)n2)C1 [Example 85, (R)-2-(3-(6-((6-(3-((3-ethoxypyridin-2-yl)oxy)piperidin-1-yl)pyrazin-2-yl)amino)pyridin-2-yl)-4-fluorophenoxy)-2-methylpropanoic Acid] as the compound, how does the pIC50 read?
Its pIC50 is 6.66.

With CCOc1ccccc1O[C@@H]1CCCN(c2cncc(Nc3cccc(-c4cnn(CC(C)(C)C(=O)O)c4)n3)n2)C1 [Example 86, (R)-3-(4-(6-((6-(3-(2-ethoxyphenoxy)piperidin-1-yl)pyrazin-2-yl)amino)pyridin-2-yl)-1H-pyrazol-1-yl)-2,2-dimethylpropanoic Acid] as the compound, how does the pIC50 read?
The pIC50 was 6.52.

How did the pIC50 turn out when CCOc1ccccc1O[C@@H]1CCCN(c2cncc(Nc3cccc(Oc4cccc(C(=O)O)c4)n3)n2)C1 [Example 87, (R)-3-((6-((6-(3-(2-ethoxyphenoxy)piperidin-1-yl)pyrazin-2-yl)amino)pyridin-2-yl)oxy)benzoic Acid] was run?
The pIC50 was 6.30.

How did the pIC50 turn out when CCOc1cccnc1O[C@@H]1CCCN(c2cncc(Nc3cccc(Oc4cccc(C(=O)O)c4)n3)n2)C1 [Example 88, (R)-3-((6-((6-(3-((3-ethoxypyridin-2-yl)oxy)piperidin-1-yl)pyrazin-2-yl)amino)pyridin-2-yl)oxy)benzoic Acid] was run?
Its pIC50 is 5.89.

With CCOc1ccccc1O[C@@H]1CCCN(c2cncc(Nc3cccc(Oc4ccc(C(=O)O)cc4)n3)n2)C1 [Example 89, (R)-4-((6-((6-(3-(2-ethoxyphenoxy)piperidin-1-yl)pyrazin-2-yl)amino)pyridin-2-yl)oxy)benzoic Acid] as the compound, how does the pIC50 read?
The pIC50 was 5.92.

CCOc1cccnc1O[C@@H]1CCCN(c2cncc(Nc3cccc(Oc4ccc(C(=O)O)cc4)n3)n2)C1 [Example 90, (R)-4-((6-((6-(3-((3-ethoxypyridin-2-yl)oxy)piperidin-1-yl)pyrazin-2-yl)amino)pyridin-2-yl)oxy)benzoic Acid] was tested. Which pIC50 did it give?
Its pIC50 is 5.92.

How did the pIC50 turn out when CCOc1ccccc1O[C@@H]1CCCN(c2cncc(Nc3cccc(Oc4cccc(C(C)(C)C(=O)O)c4)n3)n2)C1 [Example 91, (R)-2-(3-((6-((6-(3-(2-ethoxyphenoxy)piperidin-1-yl)pyrazin-2-yl)amino)pyridin-2-yl)oxy)phenyl)-2-methylpropanoic Acid] was run?
The pIC50 was 6.47.

CCOc1cccnc1O[C@@H]1CCCN(c2cncc(Nc3cccc(Oc4cccc(C(C)(C)C(=O)O)c4)n3)n2)C1 [Example 92, (R)-2-(3-((6-((6-(3-((3-ethoxypyridin-2-yl)oxy)piperidin-1-yl)pyrazin-2-yl)amino)pyridin-2-yl)oxy)phenyl)-2-methylpropanoic Acid] was tested. Which pIC50 did it give?
Its pIC50 is 6.52.

With CCOc1ccccc1O[C@@H]1CCCN(c2cncc(Nc3cccc(Oc4ccc(C(C)(C)C(=O)O)cc4)n3)n2)C1 [Example 93, (R)-2-(4-((6-((6-(3-(2-ethoxyphenoxy)piperidin-1-yl)pyrazin-2-yl)amino)pyridin-2-yl)oxy)phenyl)-2-methylpropanoic Acid] as the compound, how does the pIC50 read?
Its pIC50 is 6.77.

CCOc1cccnc1O[C@@H]1CCCN(c2cncc(Nc3cccc(Oc4ccc(C(C)(C)C(=O)O)cc4)n3)n2)C1 [Example 94, (R)-2-(4-((6-((6-(3-((3-ethoxypyridin-2-yl)oxy)piperidin-1-yl)pyrazin-2-yl)amino)pyridin-2-yl)oxy)phenyl)-2-methylpropanoic Acid] was tested. Which pIC50 did it give?
The pIC50 was 6.64.

CCOc1ccccc1O[C@@H]1CCCN(c2cncc(Nc3cccc(Oc4cccc(CC(=O)O)c4)n3)n2)C1 [Example 95, (R)-2-(3-((6-((6-(3-(2-ethoxyphenoxy)piperidin-1-yl)pyrazin-2-yl)amino)pyridin-2-yl)oxy)phenyl)acetic Acid] was tested. Which pIC50 did it give?
The pIC50 was 7.08.

How did the pIC50 turn out when CCOc1cccnc1O[C@@H]1CCCN(c2cncc(Nc3cccc(Oc4cccc(CC(=O)O)c4)n3)n2)C1 [Example 96, (R)-2-(3-((6-((6-(3-((3-ethoxypyridin-2-yl)oxy)piperidin-1-yl)pyrazin-2-yl)amino)pyridin-2-yl)oxy)phenyl)acetic Acid] was run?
The pIC50 was 7.06.

How did the pIC50 turn out when CCOc1ccccc1O[C@@H]1CCCN(c2cncc(Nc3cccc(Oc4ccc(CC(=O)O)cc4)n3)n2)C1 [Example 97, (R)-2-(4-((6-((6-(3-(2-ethoxyphenoxy)piperidin-1-yl)pyrazin-2-yl)amino)pyridin-2-yl)oxy)phenyl)acetic Acid] was run?
Its pIC50 is 6.05.

How did the pIC50 turn out when CCOc1cccnc1O[C@@H]1CCCN(c2cncc(Nc3cccc(Oc4ccc(CC(=O)O)cc4)n3)n2)C1 [Example 98, (R)-2-(4-((6-((6-(3-((3-ethoxypyridin-2-yl)oxy)piperidin-1-yl)pyrazin-2-yl)amino)pyridin-2-yl)oxy)phenyl)acetic Acid] was run?
Its pIC50 is 6.31.

How did the pIC50 turn out when CCOc1ccccc1O[C@@H]1CCCN(c2cncc(Nc3cccc(OCc4ccc(C(=O)O)cc4)n3)n2)C1 [Example 99, (R)-4-(((6-((6-(3-(2-ethoxyphenoxy)piperidin-1-yl)pyrazin-2-yl)amino)pyridin-2-yl)oxy)methyl)benzoic Acid] was run?
The pIC50 was 6.24.

With CCOc1ccccc1O[C@@H]1CCCN(c2cncc(Nc3nc(-c4cccc(CC(C)(C)C(=O)O)c4)ccc3F)n2)C1 [Example 100, (R)-3-(3-(6-((6-(3-(2-ethoxyphenoxy)piperidin-1-yl)pyrazin-2-yl)amino)-5-fluoropyridin-2-yl)phenyl)-2,2-dimethylpropanoic Acid] as the compound, how does the pIC50 read?
The pIC50 was 6.37.

CCOc1cccnc1O[C@@H]1CCCN(c2cncc(Nc3nc(-c4cccc(CC(C)(C)C(=O)O)c4)ccc3F)n2)C1 [Example 101, (R)-3-(3-(6-((6-(3-((3-ethoxypyridin-2-yl)oxy)piperidin-1-yl)pyrazin-2-yl)amino)-5-fluoropyridin-2-yl)phenyl)-2,2-dimethylpropanoic Acid] was tested. Which pIC50 did it give?
The pIC50 was 6.72.

CCOc1ccccc1O[C@@H]1CCCN(c2cncc(Nc3ccc(F)c(-c4cccc(CC(C)(C)C(=O)O)c4)n3)n2)C1 [Example 102, (R)-3-(3-(6-((6-(3-(2-ethoxyphenoxy)piperidin-1-yl)pyrazin-2-yl)amino)-3-fluoropyridin-2-yl)phenyl)-2,2-dimethylpropanoic Acid] was tested. Which pIC50 did it give?
Its pIC50 is 6.85.

CCOc1cccnc1O[C@@H]1CCCN(c2cncc(Nc3ccc(F)c(-c4cccc(CC(C)(C)C(=O)O)c4)n3)n2)C1 [Example 103, (R)-3-(3-(6-((6-(3-((3-ethoxypyridin-2-yl)oxy)piperidin-1-yl)pyrazin-2-yl)amino)-3-fluoropyridin-2-yl)phenyl)-2,2-dimethylpropanoic Acid] was tested. Which pIC50 did it give?
Its pIC50 is 6.52.

How did the pIC50 turn out when CCOc1cccnc1O[C@@H]1CCCN(c2cncc(Nc3nc(-c4cccc(OC(C)(C)C(=O)O)c4)ccc3F)n2)C1 [Example 104, (R)-2-(3-(6-((6-(3-((3-ethoxypyridin-2-yl)oxy)piperidin-1-yl)pyrazin-2-yl)amino)-5-fluoropyridin-2-yl)phenoxy)-2-methylpropanoic Acid] was run?
Its pIC50 is 6.77.

How did the pIC50 turn out when CCOc1cccnc1O[C@@H]1CCCN(c2cncc(Nc3ccc(F)c(-c4cccc(OC(C)(C)C(=O)O)c4)n3)n2)C1 [Example 105, (R)-2-(3-(6-((6-(3-((3-ethoxypyridin-2-yl)oxy)piperidin-1-yl)pyrazin-2-yl)amino)-3-fluoropyridin-2-yl)phenoxy)-2-methylpropanoic Acid] was run?
The pIC50 was 6.30.
